Where no end group is shown, it is not given here.

Test [1] relates to S. aureus ATCC 29213. The experiment in a line: Killing kinetic assay of IP or vancomycin in growth and non-growth states. It is filed as cell-based, Staphylococcus aureus. As to conditions: 30 °C. As for the experimental part: To study the antimicrobial effect of IP on S. aureus cells in both the growth and non-growth states, a killing kinetic assay of IP against S. aureus incubated in nutrient medium was performed as per the method described below or in the physiological buffer (PBS). Bacterial cells grown in TSB for ~24 h were adjusted to 1×10^8 c.f.u. ml^−1 in TSB, LB Lennox broth, MHB or PBS with 32 µg ml^−1 IP or 16 µg ml^−1 vancomycin, as control for antibiotic inhibited cell wall biosynthesis via interaction with lipid II, followed by incubation at 30 ℃ for a further 0.5, 1, 2, 4, 6 and 8 h. Bacterial cells were then serially diluted with sterile PBS, plated on TSA and incubated overnight at 37 °C. Colony counts were then determined, and c.f.u. ml^−1 was calculated.

Another test deals with S. aureus. The note with it: IP on cell surface of S. aureus; cited from earlier work.
For test [2], the system named is S. aureus ATCC 29213. The experiment in a line: Killing kinetic assay of daptomycin with or without IP pretreatment. The class given is cell-based, Staphylococcus aureus. As to conditions: IP 16 µg/ml (8×MIC) for 5 min at 37 °C, removed, then daptomycin 10 µg/ml in caMHB; c.f.u. count, triplicate. How it is done:
To examine the influence of S. aureus pretreated with IP on the efficacy of daptomycin against bacterial cells, a killing kinetic assay based on a modification of Grein’s method was conducted. Bacterial cells grown in MHB to the exponential growth phase were incubated with 16 µg ml^−1 IP (8×MIC) at 37 °C. Since IP interacts with the cell surface of S. aureus, causing depolarization within 15 min after incubation, the duration of the pretreatment with IP was set to […]. The cells were then centrifuged (5,000 g, 5 min, 25 °C), and the supernatant was discarded to remove IP. Pretreated cells were resuspended in caMHB with or without 10 µg ml^−1 daptomycin (10×MIC) and then incubated at 37 °C for 0, 15, 30, 60 and 120 min. The bacterial cells were then serially diluted with sterile PBS, and each dilution was plated on TSA plates. The colonies were left to incubate at 37 °C and were subsequently counted.

For “GFGCPFNQGACHRHCRSIGRRGGYCAGLFKQTCTCYSR (disulfide (positions not given here)) [IP, Persulcatusin, Tick defensin isolated from the hard tick Ixodes persulcatus, 38 aa, chemically synthesized, disulphide bridges formed]”, the “survival rate in the non-growth state” value in the test with S. aureus ATCC 29213 [1] (PBS, 1×10^8 c.f.u./ml, within 0.5 h then constant, IP 32 µg/ml or vancomycin 16 µg/ml (8×MIC), % of c.f.u./ml at 0 h, triplicate) is listed as ~ 70%. The “time to bactericidal activity in PBS (non-growth state)” value in the test with S. aureus ATCC 29213 [1] (PBS, IP 8×MIC, survival constant thereafter) is at most 0.5 h. Also, the “time after which bactericidal activity / reduction of survival rate appeared in growth cells” value in the test with S. aureus ATCC 29213 [1] (growth state (TSB, LB Lennox or MHB), IP 32 µg/ml or vancomycin 16 µg/ml (8×MIC)) came to 2 h. In addition, the “time to depolarization after incubation” value with S. aureus is listed as at most 15 min. Further, the “effect of short-term IP pretreatment on killing by daptomycin” value in the test with S. aureus ATCC 29213 [2] is reported as “reduced the bactericidal activity of daptomycin”.

Source of the values: publication PMC12453121, “The combined effects of tick defensin persulcatusin with conventional antibiotics and antimicrobial proteins/peptides against Staphylococcus aureus” (Microbiology, 2025).
